Series [1] concerns UO-31. The series can be described thus: Induction of apoptosis in human UO-31 cells assessed as necrotic cells at IC50 by Annexin V-FITC/PI staining based flow cytometry analysis (reference value: 1.19%). Type of series: functional. On the technique in general: In flow cytometry, cells or beads pass a laser one at a time.
Series [2] relates to UO-31. The series can be described thus: Induction of apoptosis in human UO-31 cells assessed as early apoptotic cells at IC50 by Annexin V-FITC/PI staining based flow cytometry analysis (reference value: 0.61%). Type of series: functional.
The nature of series [3]: Inhibition of PDGFR (unknown origin) incubated for 60 mins in presence of ATP by ADP-Glo kinase assay. Set-up: species or system Homo sapiens. A general note: In ADP-Glo the light output rises with the ADP produced.
The target of series [4] is Vascular endothelial growth factor A, long form (Homo sapiens) (UniProt P15692). Briefly: Inhibition of VEGF-mediated cell migration in HUVEC cells assessed as wound closure at 10 ug/ml measured after 72 hrs by scratch-wound healing assay. The series is classed as cell-based. As to conditions: dose 10.0 µg/ml. On the set-up: scale not given: the % may be the effect or the level left.
Sequence of Vascular endothelial growth factor A, long form (Homo sapiens) (P15692 whole entry): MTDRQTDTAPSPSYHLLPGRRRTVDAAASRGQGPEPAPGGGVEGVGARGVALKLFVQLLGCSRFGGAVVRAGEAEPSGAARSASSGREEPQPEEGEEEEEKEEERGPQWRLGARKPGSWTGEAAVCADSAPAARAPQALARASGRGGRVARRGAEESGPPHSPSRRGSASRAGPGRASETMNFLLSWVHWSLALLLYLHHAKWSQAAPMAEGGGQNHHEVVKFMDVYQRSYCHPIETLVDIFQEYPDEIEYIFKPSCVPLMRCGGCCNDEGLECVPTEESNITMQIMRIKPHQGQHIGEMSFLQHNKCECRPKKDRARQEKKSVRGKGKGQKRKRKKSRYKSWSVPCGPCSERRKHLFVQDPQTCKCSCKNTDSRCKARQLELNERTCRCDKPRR

The test system of series [5] is UO-31. The series can be described thus: Induction of apoptosis in human UO-31 cells assessed as Bax protein level by ELISA (reference value: 70.11 +/- 7.45 pg/ml). Type of series: functional. On the technique in general: An ELISA detects its analyte on a solid surface through an enzyme-linked reagent.
Series [6] concerns UO-31. The series can be described thus: Induction of apoptosis in human UO-31 cells assessed as Bcl-2 protein level by ELISA (reference value: 12.19 +/- 0.64 ng/ml). The series is classed as functional.
The test system of series [7] is UO-31. Briefly: Induction of apoptosis in human UO-31 cells assessed as late apoptotic cells at IC50 by Annexin V-FITC/PI staining based flow cytometry analysis (reference value: […]). Type of series: functional.
The test system of series [8] is UO-31. The series can be described thus: Induction of cell cycle arrest in human UO-31 cells assessed as cell aggregates at 1.67 uM measured after 24 hrs by PI staining based flow cytometry analysis (reference value: 1.82%). Type of series: functional.
In series [9] the test system is UO-31. The series can be described thus: cells. The conditions noted are these: Homo sapiens, UO-31, light or radiation study.
The test system of series [10] is M14. Briefly: cells. As to conditions: Homo sapiens, M14, 24 h.
The subject of series [11] is UO-31. Type of series: functional, Homo sapiens. The conditions noted are these: dose 3.61 µM; time 24 hrs.
Series [12] relates to UO-31. Briefly: Induction of cell cycle arrest in human UO-31 cells assessed as cell aggregates at 3.61 uM measured after 24 hrs by PI staining based flow cytometry analysis (reference value: 1.82%). Type of series: functional.
Series [13] relates to UO-31. Briefly: Induction of cell cycle arrest in human UO-31 cells assessed as accumulation of cells in G0-G1 phase at 3.61 uM measured after 24 hrs by PI staining based flow cytometry analysis (reference value: 49.26%). The series is classed as functional.
For series [14], the system named is UO-31. The series can be described thus: Induction of apoptosis in human UO-31 cells assessed as fold increase in Bax protein level by ELISA relative to control. The series is classed as functional.
For series [15], the system named is M14. The series can be described thus: cells. As to conditions: Homo sapiens, M14, light or radiation study.
The test system of series [16] is UO-31. The series can be described thus: Induction of apoptosis in human UO-31 cells assessed as fold decrease in Bcl-2 protein level by ELISA relative to control. The series is classed as functional.
Series [17] concerns UO-31. Briefly: Induction of cell cycle arrest in human UO-31 cells assessed as accumulation of cells in S phase at 3.61 uM measured after 24 hrs by PI staining based flow cytometry analysis (reference value: 36.42%). The series is classed as functional.
The nature of series [18]: Cytotoxicity against human RPTEC cells assessed as inhibition of cell growth incubated for 24 hrs by MTT assay. The series is classed as toxicity, cell-based.
Series [19] deals with UO-31. The series can be described thus: Induction of cell cycle arrest in human UO-31 cells assessed as cell debris at 3.61 uM measured after 24 hrs by PI staining based flow cytometry analysis (reference value: 2.19%). The series is classed as functional.
The next series concerns HCT-116. Briefly: cells. As to conditions: Homo sapiens, HCT-116, 24 h.
Series [20] has as its system UO-31. Briefly: cells. As to conditions: Homo sapiens, UO-31, 24 h.
In series [21] the test system is UO-31. The series can be described thus: Induction of apoptosis in human UO-31 cells assessed as increase in caspase-3 level by measuring optical density by Western blot densitometry analysis (reference value: 0.095). The series is classed as functional.
Series [22] concerns SNB-75. The series can be described thus: cells. The conditions noted are these: Homo sapiens, SNB-75, 24 h.
Series [23] has as its system UO-31. Briefly: Induction of cell cycle arrest in human UO-31 cells assessed as accumulation of cells in G2/M phase at 3.61 uM measured after 24 hrs by PI staining based flow cytometry analysis (reference value: 14.32%). Type of series: functional.
Another series has as its system A498. Briefly: Cytotoxicity against human A498 cells assessed as growth inhibition at 10 uM relative to control. The series is classed as functional. The conditions noted are these: read-out: GI.
The subject of another series is MCF7. Briefly: Cytotoxicity against human MCF7 cells assessed as growth inhibition at 10 uM relative to control. Type of series: functional. The conditions noted are these: read-out: GI.
In the next series the test system is RPMI-8226. The series can be described thus: Cytotoxicity against human RPMI-8226 cells assessed as growth inhibition at 10 uM relative to control. As to conditions: read-out: GI. Type of series: functional.
Series [24] relates to UO-31. Briefly: Cytotoxicity against human UO-31 cells assessed as growth inhibition at 10 uM relative to control. Type of series: functional. As to conditions: read-out: GI.
The subject of a further series is SR. The series can be described thus: Cytotoxicity against human SR cells assessed as growth inhibition at 10 uM relative to control. Type of series: functional. As to conditions: read-out: GI.
The next series concerns MOLT-4. Briefly: Cytotoxicity against human MOLT-4 cells assessed as growth inhibition at 10 uM relative to control. The series is classed as functional. As to conditions: read-out: GI.
The subject of another series is RXF 393. Briefly: Cytotoxicity against human RXF 393 cells assessed as growth inhibition at 10 uM relative to control. The series is classed as functional. The conditions noted are these: read-out: GI.
In a further series the test system is CAKI-1. Briefly: Cytotoxicity against human CAKI-1 cells assessed as growth inhibition at 10 uM relative to control. As to conditions: read-out: GI. The series is classed as functional.
The test system of a further series is T47D. The series can be described thus: Cytotoxicity against human T47D cells assessed as growth inhibition at 10 uM relative to control. As to conditions: read-out: GI. The series is classed as functional.
The subject of another series is MDA-MB-468. Briefly: Cytotoxicity against human MDA-MB-468 cells assessed as growth inhibition at 10 uM relative to control. As to conditions: read-out: GI. The series is classed as functional.
Another series relates to 786-0. Briefly: Cytotoxicity against human 786-0 cells assessed as growth inhibition at 10 uM relative to control. The series is classed as functional. The conditions noted are these: read-out: GI.
A further series deals with A549. The series can be described thus: Cytotoxicity against human A549 cells assessed as growth inhibition at 10 uM relative to control. Type of series: functional. As to conditions: read-out: GI.
The test system of another series is NCI-H522. Briefly: Cytotoxicity against human NCI-H522 cells assessed as growth inhibition at 10 uM relative to control. The series is classed as functional. As to conditions: read-out: GI.
The test system of series [25] is SNB-75. Briefly: Cytotoxicity against human SNB-75 cells assessed as growth inhibition at 10 uM relative to control. The series is classed as functional. The conditions noted are these: read-out: GI.
A further series relates to UACC-62. The series can be described thus: Cytotoxicity against human UACC-62 cells assessed as growth inhibition at 10 uM relative to control. As to conditions: read-out: GI. Type of series: functional.

As usually defined, the IC50 is the concentration that inhibits the measured activity by half. As for `CNC(=O)c1cc(Oc2ccc(NC(=O)Nc3ccc(Cl)c(C(F)(F)F)c3)cc2)ccn1` [SORAFENIB], the Activity is 4.72% in the series on UO-31 [1]; 19.42% with UO-31 [2]; 46.7% in series [4]; 409.2 pg/mL in the series with UO-31 [5]; 3.898 ng/mL in the series on UO-31 [6]; 31.17% with UO-31 [7]. Besides, the Activity in the series on UO-31 [8] worked out at 1.47%. In series [3], the IC50 stood at 0.04 µM.

As for `COc1cccc2c1C(=O)c1c(O)c3c(c(O)c1C2=O)C[C@@](O)(C(=O)CO)C[C@@H]3O[C@H]1C[C@H](N)[C@H](O)[C@H](C)O1` [DOXORUBICIN], the IC50 with UO-31 [9] was 3.01 µM; in the series on M14 [10] it was 5.11 µM; in the series with M14 [15], 2.13 µM; with HCT-116, 0.49 µM; in the series with UO-31 [20], 3.61 µM; in the series on SNB-75 [22], 5.82 µM. In addition, the Activity in the series on UO-31 [11] came out at 51.66%; in the series on UO-31 [1], 11.03%; with UO-31 [12] it was 2.13%; in the series on UO-31 [2], 14.13%; with UO-31 [13] it was 43.47%; in the series with UO-31 [17], 48.62%. For the same compound, the Activity in the series with UO-31 [5] was determined as 392.1 pg/mL; in the series on UO-31 [19], 1.66%; with UO-31 [6] it was 4.396 ng/mL; in the series on UO-31 [7], 26.5%; in the series with UO-31 [23], 7.91%. For the same compound, the “fold change (FC)” value in the series on UO-31 [14] was determined as 5.59; with UO-31 [16], 0.36. For the same compound, the IC50 at 24 h in [18] came to 12.5 µM. For the same compound, the OD in the series on UO-31 [21] was determined as 0.844.

On to `O=C(CSc1nc2ccccc2c(=O)n1-c1ccc(S(=O)(=O)Nc2ccc(Cl)nn2)cc1)NCc1ccccc1`, for which the inhibition of growth at 10 µM in the series on A498 stood at 18%; with MCF7, 11%; with RPMI-8226, 21%; with UO-31 [24], 12%; in the series on SR, 12%; with MOLT-4 it was 12%. Also, the inhibition of growth at 10 µM in the series with RXF 393 amounted to 18%; in the series on CAKI-1, 14%; in the series with T47D, 24%; in the series on MDA-MB-468, 16%; in the series on 786-0 it was 10%; in the series with A549, 11%. Moreover, the inhibition of growth at 10 µM with NCI-H522 was 14%; in the series with SNB-75 [25], 12%; in the series with UACC-62, 18%.

For the origin of these results see ChEMBL document CHEMBL5385860, “Antiproliferative, antiangiogenic and apoptotic effect of new hybrids of quinazoline-4(3H)-ones and sulfachloropyridazine” (Eur J Med Chem, 2023).
